pEC50: −log10 of the molar value.
Experiments:
[1] = biological target: T1, Follicle-stimulating hormone receptor (Homo sapiens, UniProt P23945); experiment: Positive allosteric modulation of FSHR (unknown origin) expressed in CHO cells assessed as FSH-induced cAMP accumulation incubated for 1 hr by HTRF assay; format: functional, cell-based
T1 sequence (P23945 whole entry): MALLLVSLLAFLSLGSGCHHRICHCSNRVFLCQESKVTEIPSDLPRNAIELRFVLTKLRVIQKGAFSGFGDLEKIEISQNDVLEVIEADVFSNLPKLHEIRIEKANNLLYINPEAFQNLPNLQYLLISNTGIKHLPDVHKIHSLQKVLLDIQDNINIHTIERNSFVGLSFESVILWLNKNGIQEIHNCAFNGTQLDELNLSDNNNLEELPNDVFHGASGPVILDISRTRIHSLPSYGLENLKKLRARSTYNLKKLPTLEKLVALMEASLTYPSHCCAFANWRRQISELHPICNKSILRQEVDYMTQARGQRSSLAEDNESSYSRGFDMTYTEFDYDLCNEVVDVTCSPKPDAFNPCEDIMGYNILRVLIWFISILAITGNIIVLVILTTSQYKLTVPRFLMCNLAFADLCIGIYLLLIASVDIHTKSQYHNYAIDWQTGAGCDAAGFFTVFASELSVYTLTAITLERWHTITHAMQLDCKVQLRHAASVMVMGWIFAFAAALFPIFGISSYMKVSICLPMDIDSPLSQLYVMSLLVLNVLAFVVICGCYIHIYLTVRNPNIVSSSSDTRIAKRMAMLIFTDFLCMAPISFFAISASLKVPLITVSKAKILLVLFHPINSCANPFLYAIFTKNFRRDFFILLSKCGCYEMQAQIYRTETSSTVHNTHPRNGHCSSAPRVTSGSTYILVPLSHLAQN

[2] = biological target: T1, Follicle-stimulating hormone receptor; experiment: Positive allosteric modulation of human FSHR expressed in rat granulosa cells assessed as FSH-induced estradiol production after 72 hrs by radioimmunossay; format: cell-based

SMILES	pEC50 [1]	pEC50 [2]
Cc1ccccc1N1CCN(c2ccc(C(=O)NCCCN3CCCC3=O)cc2NC(=O)c2ccco2)CC1	> 7.00	< 6.00
Cc1ccccc1N1CCN(c2ccc(C(=O)N[C@H]3CCC[C@H](O)C3)cc2NC(=O)c2coc(C3CC3)n2)CC1	> 7.00	
Cc1ccccc1N1CCN(c2ccc(C(=O)NCCCN3CCCC3=O)cc2NC(=O)c2ccc(F)cc2)CC1	7.00	7.00

Now from value to compound:

pEC50 [1]	pEC50 [2]	SMILES
> 7.00		C=CCNC(=O)NCCCNC(=O)c1ccc(N2CCN(c3ccccc3C)CC2)c(NC(=O)c2ccco2)c1
> 7.00	7.00	Cc1ccccc1N1CCN(c2ccc(C(=O)NCCCc3nn[nH]n3)cc2NC(=O)c2coc(C3CC3)n2)CC1
> 7.00	7.00	Cc1ccccc1N1CCN(c2ccc(C(=O)NCCCN3CCCC3=O)cc2NC(=O)c2coc(C3CC3)n2)CC1
